Data set [1] in a line: Tumor-cell-transplanted animal model assay 2, body weight variation. The data set is classed as in vivo, BALB/c nude mice. The conditions noted are these: MIA PaCa-2 transplanted mice. How it is done:
Anti-asialo GM1 (rabbit) (Wako Pure Chemical Industries, Ltd.) was intraperitoneally administered to BALB/c nude mice, and the mice were grown at room temperature for 2 hours. To the back of each BALB/c nude mouse, 2×10^6 cells of the MIA PaCa-2 cell line were subcutaneously injected for transplantation. Compound 11 or compound 12 in a dose of 500 ng was intraperitoneally administered to each mouse on each day from the day following the date of transplantation, and body weight was measured on each day (n=5 for each group). No compound was administered to a control group, and echinomycin in a dose of 400 ng was intraperitoneally administered to each mouse in a group with administration of echinomycin on each day, and body weight was measured at the date of slaughter (n=5 for each group).

Data set [2] deals with MIA PaCa-2 cell line transplanted. Briefly: Tumor-cell-transplanted animal model assay 1, size of transplanted tumor, MIA PaCa-2. The data set is classed as in vivo, BALB/c nude mice. Conditions: MIA PaCa-2 (FIG. 2-1). How it is done:
(§1) Anti-asialo GM1 (rabbit) (Wako Pure Chemical Industries, Ltd.) was intraperitoneally administered to BALB/c nude mice, and the mice were grown at room temperature for 2 hours. To the back of each BALB/c nude mouse, 2×10^6 test cells were subcutaneously injected for transplantation. Compound 11 or compound 12 in a dose of 50 ng or 500 ng or in a dose of 40 ng or 400 ng was intraperitoneally administered to each mouse on each day, from the day following the date of transplantation for mice with the SW620 cell line transplanted, from the day 1 week after the date of transplantation for mice with the MIA PaCa-2 cell line transplanted, and the growth of a tumor mass in each transplantation site was observed. No compound was administered to a control group, and echinomycin in a dose of 40 ng or 400 ng was intraperitoneally administered to each mouse in groups with administration of echinomycin on each day.
(§2) Each of the control group, groups with administration of echinomycin, groups with administration of compound 11, and groups with administration of compound 12 was n=5.

For another data set, the system named is activated caspase-3. Briefly: Detection of activated caspase-3 (Western blotting). The format is cell-based. Conditions: 10 ng/mL, 48 hours; SW620; actin as endogenous control. The method, then: The SW620 cell line aliquoted into a 6-well plate at 2.0×10^3 cells/well was cultured for 24 hours, and compound 12 was then added to the culture solution to reach a final concentration of 10 ng/mL to initiate incubation, and the plate was taken out after 48 hours.
Proteins were collected by using a commercially available protein collection kit (mammalian cell extraction kit (BioVision, Inc.)) in accordance with a protocol provided by the manufacturer, and activated caspase-3 was quantified through Western blotting with a specific antibody to cleaved caspase-3 (Cell Signaling Technology, Inc.). Actin was used as an endogenous control. No compound was added for a control group, and echinomycin was added for a group with administration of echinomycin so that the final concentration of echinomycin reached 10 ng/mL, and the above-described operations were performed.
(§3) Each of the control group, group with administration of echinomycin, and group with administration of compound 12 was n=4.

The subject of data set [3] is SW620 cell line transplanted. Nature of the data set: Tumor-cell-transplanted animal model assay 1, size of transplanted tumor, SW620. The format is in vivo, BALB/c nude mice. How it is done: as §1, §2
Data set [4] relates to SW620 cell line. Briefly: SRB assay, colorectal cancer cell (SW620 cell) line. The format is cell-based. How it is done: (§4) Used for cells were an SW620 cell line (ATCC), which was a colorectal cancer cell line, and an MIA PaCa-2 cell line (ATCC) and a Suit2 cell line (Health Science Research Resources Bank), which were a pancreatic cancer cell line.
(§5) Culture of the MIA PaCa-2 cell line and the Suit2 cell line was performed by using a DMEM with 10% FBS, 2 mM L-glutamine, 50 U/mL penicillin, and 50 μg/mL streptomycin. Culture of the SW620 cell line was performed by using RPMI1640 with 10% FBS, 2 mM L-glutamine, 50 U/mL penicillin, and 50 μg/mL streptomycin.
(§6) Test cells aliquoted into a 96-well plate at 1.0×10^4 cells/well were cultured for 24 hours, and compound 11 or compound 12 was then added to the culture solution to reach a final concentration of 1 ng/mL, 10 ng/mL, 100 ng/mL, or 1000 ng/mL to initiate incubation, and the plate was taken out after 24 hours, 48 hours, 72 hours, and 96 hours (n=5 for each case).
(§7) To each well of the plate taken out, 100 μL of 10% trichloroacetic acid (TCA) was added, the plate was left to stand at 4° C. for 1 hour, and washed four times with pure water. […] Cell density after each incubation time was determined by measuring OD at 510 nm for stained cells lysed in 10 mM Tris buffer solution. […]
On the technique in general: In SRB staining, fixed cells bind dye roughly in proportion to their protein.

In another data set the test system is MIA PaCa-2 cell line. Nature of the data set: SRB assay, pancreatic cancer cell (MIA PaCa-2 cell) line. The data set is classed as cell-based. How it is done: as §4, §5, §6, §7
The subject of the next data set is Suit2 cell line. Briefly: SRB assay, pancreatic cancer cell (SuiT-2 cell) line. Conditions: 100 ng/mL or more. The data set is classed as cell-based. The method, then:
as §4, §5, §6, §7

The subject of data set [5] is SW620 cell line. Briefly: Cell death inducibility, TUNEL method. The data set is classed as cell-based. Conditions: 10 ng/mL, 48 hours. The method, then:
The SW620 cell line aliquoted into a 4-well glass chamber slide at 5.0×10^4 cells/well was cultured for 24 hours, and compound 12 was then added to the culture solution to reach a final concentration of 10 ng/mL to initiate incubation, and the slide was taken out after 48 hours.
By using a commercially available cell death detection kit utilizing a TUNEL (TdT-mediated dUTP nick-end labeling) method (In Situ Cell Death Detection Kit and TMR red (Roche Diagnostic)) in accordance with a protocol provided by the manufacturer, TUNEL-stained cells (i.e., cells that underwent cell death) were detected and counted. No compound was added for a control group, and echinomycin was added for a group with administration of echinomycin so that the final concentration of echinomycin reached 10 ng/mL, and the above-described operations were performed.
as §3

For data set [6] the following is noted: Non Patent Literature 1; clinical development abandoned; cited from earlier work.
For the next data set, the system named is HIF-1a. Conditions: Non Patent Literature 2; cited from earlier work.
[7] abbreviates: 500 ng intraperitoneally each day.

Here are results for three molecules from US11384121B2, “Creation of peptide-based anti-tumor agent” (National University Corporation Hokkaido University, priority 2018, dated 2022).

Regarding `CC(C)[C@H]1C(=O)OC[C@@H](NC(=O)c2cnc3ccccc3n2)C(=O)N[C@@H](C)C(=O)N(C)[C@H]2CSC[C@@H](C(=O)N1C)N(C)C(=O)[C@H](C)NC(=O)[C@H](NC(=O)c1cnc3ccccc3n1)COC(=O)[C@H](C(C)C)N(C)C2=O` [compound 11], in [1] (setting [7]), the “body weight on day 28 of administration” value is listed as “Large reduction in body weight was not found”. For the same molecule, the “size of transplanted tumor” value in [2] (setting [7]) was “Reduction in the size of transplanted tumor”. The “tumor size reduction compared with echinomycin” value in data set [2] (500 ng versus 400 ng of echinomycin) is given as “comparable with that provided by administration of 400 ng of echinomycin”.
Take `CC(C)[C@H]1C(=O)OC[C@@H](NC(=O)c2nc3ccccc3cc2O)C(=O)N[C@@H](C)C(=O)N(C)[C@H]2CSC[C@@H](C(=O)N1C)N(C)C(=O)[C@H](C)NC(=O)[C@H](NC(=O)c1nc3ccccc3cc1O)COC(=O)[C@H](C(C)C)N(C)C2=O` [compound 12]: the “amount of activated caspase-3, relative to control group (100±45)” value with activated caspase-3 came to 1107±273. For the same molecule, in [1] (setting [7]), the “body weight on day 28 of administration” value is on record as “Large reduction in body weight was not found”. Moreover, the “tumor size reduction compared with echinomycin” value in [3] (40 ng versus 400 ng of echinomycin, cell line not given) is reported as “comparable with that of administration of 400 ng of echinomycin”. Further, the “size of transplanted tumor” value in [3] (any of the loadings, intraperitoneally each day, SW620 (FIG. 2-2)) is on record as “reduction in the size of transplanted tumor”; in data set [2] (any of the loadings, intraperitoneally each day), “reduction in the size of transplanted tumor”. The “growth-suppressing activity at low concentration compared with echinomycin” value in the data set with SW620 cell line [4] (10 ng/mL) and with MIA PaCa-2 cell line (10 ng/mL) was “higher than that of echinomycin” each time. The “absorbance (cell density, OD at 510 nm) versus control; activity to suppress the growth of cancer cells” value with SW620 cell line [4] (100 ng/mL or more), with MIA PaCa-2 cell line (100 ng/mL or more) and with Suit2 cell line was “significant difference in absorbance” in each case. Further, in the data set with SW620 cell line [5], the “number of cells that underwent cell death (TUNEL-stained cells)” value is “significantly larger than those for the control group and the group with administration of echinomycin”.
In the case of `CS[C@H]1SC[C@H]2C(=O)N(C)[C@@H](C(C)C)C(=O)OC[C@@H](NC(=O)c3cnc4ccccc4n3)C(=O)N[C@@H](C)C(=O)N(C)[C@@H]1C(=O)N(C)[C@@H](C(C)C)C(=O)OC[C@@H](NC(=O)c1cnc3ccccc3n1)C(=O)N[C@@H](C)C(=O)N2C` [echinomycin, reference compound], the “amount of activated caspase-3, relative to control group (100±45)” value in the data set on activated caspase-3 amounted to 362±176. In addition, the “body weight on day 28 of administration” value in data set [1] (400 ng intraperitoneally each day) was “Large reduction in body weight was not found”. The “toxicity in phase 2 clinical trial” value in data set [6] is on record as “toxicity”. Moreover, the HIF-1a inhibitory activity entry with HIF-1a was “HIF-1a inhibitory activity”.
